From patent publication US11795177B2, “Substituted quinoline analogs as aldehyde dehydrogenase 1A1 (ALDH1A1) inhibitors” (THE UNITED STATES OF AMERICA, AS REPRESENTED BY THE …, priority 2017, dated 2023)
Counter-ions that a name gives are not always drawn.

What was measured:
ALDH1A1 enzyme = target: T1, ALDH1A1 enzyme (Homo sapiens, UniProt P00352); assay: ALDH1A1 enzymatic assay (in vitro); format: biochemical; settings: ALDH1A1 enzyme 20 nM, NAD+ 1 mM, propionaldehyde 80 μM; read-out: ALDH1A1 IC50
T1 sequence (P00352 1-501): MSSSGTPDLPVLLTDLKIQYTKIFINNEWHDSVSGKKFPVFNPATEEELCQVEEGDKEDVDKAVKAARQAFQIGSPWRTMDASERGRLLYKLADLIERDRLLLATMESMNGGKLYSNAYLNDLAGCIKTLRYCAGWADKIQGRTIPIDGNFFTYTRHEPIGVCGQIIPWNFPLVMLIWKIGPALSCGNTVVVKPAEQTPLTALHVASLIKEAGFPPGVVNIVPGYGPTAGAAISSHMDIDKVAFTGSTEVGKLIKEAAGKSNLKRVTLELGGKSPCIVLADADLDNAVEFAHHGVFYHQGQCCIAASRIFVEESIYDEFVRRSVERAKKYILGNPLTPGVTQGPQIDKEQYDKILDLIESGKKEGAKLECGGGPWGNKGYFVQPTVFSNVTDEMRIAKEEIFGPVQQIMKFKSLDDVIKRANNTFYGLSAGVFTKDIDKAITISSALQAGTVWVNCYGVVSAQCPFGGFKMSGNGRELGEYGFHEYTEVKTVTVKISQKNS
Outline: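 ALDH1A1 (20 nM final) in 100 mM HEPES pH 7.5, 0.01% Tween 20 was preincubated 15 min at RT with compound (968 pM–57.2 μM final), then started with 1 mM NAD+ and 80 μM propionaldehyde. NADH fluorescence (ex 340/em 450 nm) followed kinetically for 10 min; change normalized to no-inhibitor and no-enzyme controls for percent inhibition and curve fitting.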

MIA PaCa-2 cells = assay: MIA PaCa2 cell-based assay (1,536-well high-content imaging ALDEFLUOR assay); design: species or system human; settings: Homo sapiens, 0.5 h, ALDEFLUOR BAAA substrate 500 nM, 30 minutes
Outline: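 MIA PaCa-2 cells (1,000/well), plated overnight, given BAAA substrate (500 nM) plus Hoechst 33342 (0.5 nM), then compound (16-point, 1.4 nM–47.8 μM final; 0.5% DMSO). After 30 min at 37° C, ALDH activity imaged by high-content microscopy as BAA-retaining (FITC) cells versus Hoechst-stained nuclei.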

Row | Structure (SMILES) | IC50 (ALDH1A1 enzyme) [nM] | IC50 (MIA PaCa-2 cells) [nM]
1 | COc1ccc2ncc(C(=O)N3CCN(C(=O)c4cnn(C)c4)CC3)c(N3CCC4(CC3)OCCO4)c2c1 [Example 7, (6-methoxy-4-(1,4-dioxa-8-azaspiro[4.5]decan-8-yl)quinolin-3-yl)(4-(1-methyl-1H-pyrazole-4-carbonyl)piperazin-1-yl)methanone, TFA] | < 500 | > 10000
2 | CCN(CC)C(=O)N1CCN(C(=O)c2cnc3c(F)cc(F)cc3c2N2CCC(C)(C#N)CC2)CC1 [Example 164, 4-(4-(4-cyano-4-methylpiperidin-1-yl)-6,8-difluoroquinoline-3-carbonyl)-N,N-diethylpiperazine-1-carboxamide] | 500 to 1000 | 1000 to 10000
3 | CC(=O)C1(c2ccccc2)CCN(c2c(C(=O)N3CCN(C(=O)N(C)C)CC3)cnc3ccc(F)cc23)CC1 [Example 271, 4-(4-(4-acetyl-4-phenylpiperidin-1-yl)-6-fluoroquinoline-3-carbonyl)-N,N-dimethylpiperazine-1-carboxamide] | < 500 | < 500
4 | C[C@@H]1CN(C(=O)c2cnc3ccc(F)cc3c2N2CCC(C)(C#N)CC2)C[C@H](C)N1C(=O)C1CC1 [Example 228, 1-(3-((3R*,5S*)-4-(cyclopropanecarbonyl)-3,5-dimethylpiperazine-1-carbonyl)-6-fluoroquinolin-4-yl)-4-methylpiperidine-4-carbonitrile] | 1000 to 10000 | > 10000
5 | CC(C)(C#N)c1ccc(-c2c(C(=O)N3CCC(S(C)(=O)=O)CC3)cnc3ccc(F)cc23)cc1 [Example 259, 2-(4-(6-fluoro-3-(4-(methylsulfonyl)piperidine-1-carbonyl)quinolin-4-yl)phenyl)-2-methylpropanenitrile] | < 500 | < 500
6 | CN(C)S(=O)(=O)N1CCN(C(=O)c2cnc3ccc(Cl)cc3c2N2CCC(C#N)(c3ccccc3)CC2)CC1 [Cpd. 314, 4-(6-chloro-4-(4-cyano-4-phenylpiperidin-1-yl)quinoline-3-carbonyl)-N,N-dimethylpiperazine-1-sulfonamide] | < 500 | < 500
7 | N#CC1(c2ccccc2)CCN(c2c(C(=O)N3CCC(O)(CO)CC3)cnc3ccc(F)cc23)CC1 [Cpd. 351, 1-(6-fluoro-3-(4-hydroxy-4-(hydroxymethyl)piperidine-1-carbonyl)quinolin-4-yl)-4-phenylpiperidine-4-carbonitrile] | < 500 | < 500
8 | COc1ccc2ncc(C(=O)N3CCN(C(=O)C4CC4)CC3)c(N3CCC(F)(F)CC3)c2c1 [Example 44, (4-(cyclopropanecarbonyl)piperazin-1-yl)(4-(4,4-difluoropiperidin-1-yl)-6-methoxyquinolin-3-yl)methanone] | > 10000 | > 10000
9 | CCNC(=O)N1CCN(C(=O)c2cnc3ccc(F)cc3c2N2CCC3(CC2)OCCO3)CC1 [Example 56, N-ethyl-4-(6-fluoro-4-(1,4-dioxa-8-azaspiro[4.5]decan-8-yl)quinoline-3-carbonyl)piperazine-1-carboxamide] | < 500 | > 10000
10 | CC1(C#N)CCN(c2c(C(=O)N3CCN(S(=O)(=O)N4CCCC4)CC3)cnc3c(F)cc(F)cc23)CC1 [Example 168, 1-(6,8-difluoro-3-(4-(pyrrolidin-1-ylsulfonyl)piperazine-1-carbonyl)quinolin-4-yl)-4-methylpiperidine-4-carbonitrile] | 1000 to 10000 | > 10000
11 | N#CC1(c2ccccc2)CCN(c2c(C(=O)N3CCC(O)(C4CC4)CC3)cnc3ccc(F)cc23)CC1 [Cpd. 348, 1-(3-(4-cyclopropyl-4-hydroxypiperidine-1-carbonyl)-6-fluoroquinolin-4-yl)-4-phenylpiperidine-4-carbonitrile] | < 500 | < 500
12 | C[C@@H]1CN(C(=O)c2cnc3ccc(F)cc3c2N2CCC(C)(C#N)CC2)CCN1C(=O)C1CC1 [Example 224, (R)-1-(3-(4-(cyclopropanecareonyl)-3-methylpiperazine-1-carbonyl)-6-fluoroquinolin-4-yl)-4-methylpiperidine-4-carbonitrile] | 1000 to 10000 | > 10000
13 | O=C(c1cnc2c(F)cc(F)cc2c1N1CCC2(CC1)OCCO2)N1CCN(C(=O)N2CCCC2)CC1 [Example 160, (6,8-difluoro-4-(1,4-dioxa-8-azaspiro[4.5]decan-8-yl)quinolin-3-yl)(4-(pyrrolidine-1-carbonyl)piperazin-1-yl)methanone] | < 500 | > 10000
14 | CCS(=O)(=O)N1CCN(C(=O)c2cnc3cc(F)c(F)cc3c2N2CCC3(CC2)OCCO3)CC1 [Example 171, (6,7-difluoro-4-(1,4-dioxa-8-azaspiro[4.5]decan-8-yl)quinolin-3-yl)(4-(ethylsulfonyl)piperazin-1-yl)methanone] | < 500 | 1000 to 10000
15 | COc1ccc2ncc(C(=O)N3CCN(C(=O)C4CC4)CC3)c(N3CCN(C(C)=O)CC3)c2c1 [Example 23, 1-(4-(3-(4-(cyclopropanecarbonyl)piperazine-1-carbonyl)-6-methoxyquinolin-4-yl)piperazin-1-yl)ethanone] | > 10000 | > 10000
16 | COc1cc2ncc(C(=O)N3CCN(C(C)=O)CC3)c(N3CCC(C)(C#N)CC3)c2cc1OC [Example 112, 1-(3-(4-acetylpiperazine-1-carbonyl)-6,7-dimethoxyquinolin-4-yl)-4-methylpiperidine-4-carbonitrile] | < 500 | 1000 to 10000
17 | COc1ccc2ncc(C(=O)N3CCN(C(C)=O)CC3)c(N3CCC4(CC3)OCCO4)c2c1 [Example 38, 1-(4-(6-methoxy-4-(1,4-dioxa-8-azaspiro[4.5]decan-8-yl)quinoline-3-carbonyl)piperazin-1-yl)ethanone] | < 500 | 1000 to 10000
18 | O=C(C1CC1)C1CCN(C(=O)c2cnc3c(F)cc(F)cc3c2N2CCC3(CC2)OCCO3)CC1 [Example 192, (4-(cyclopropanecarbonyl)piperidin-1-yl)(6,8-difluoro-4-(1,4-dioxa-8-azaspiro[4.5]decan-8-yl)quinolin-3-yl)methanone] | < 500 | 500 to 1000
19 | COc1c(F)cc2c(N3CCC4(CC3)OCCO4)c(C(=O)N3CCN(C(=O)C4CC4)CC3)cnc2c1F [Example 123, (4-(cyclopropanecarbonyl)piperazin-1-yl)(6,8-difluoro-7-methoxy-4-(1,4-dioxa-8-azaspiro[4.5]decan-8-yl)quinolin-3-yl)methanone] | < 500 | 1000 to 10000
20 | COc1ccc2ncc(C(=O)N3CCN(C(=O)C4CC4)CC3)c(N3CCC4(CCCC4)CC3)c2c1 [Example 17, (4-(cyclopropanecarbonyl)piperazin-1-yl)(6-methoxy-4-(8-azaspiro[4.5]decan-8-yl)quinolin-3-yl)methanone, TFA] | < 500 | 1000 to 10000
21 | N#CC1(c2ccc(-c3c(C(=O)N4CCC(O)(CO)CC4)cnc4ccc(F)cc34)cc2)CC1 [Cpd. 354, 1-(4-(6-fluoro-3-(4-hydroxy-4-(hydroxymethyl)piperidine-1-carbonyl)quinolin-4-yl)phenyl)cyclopropane-1-carbonitrile] | < 500 | 1000 to 10000
22 | CS(=O)(=O)C1CCN(C(=O)c2cnc3c(F)cc(F)cc3c2N2CCC3(CC2)OCCO3)CC1 [Example 186, (6,8-difluoro-4-(1,4-dioxa-8-azaspiro[4.5]decan-8-yl)quinolin-3-yl)(4-(methylsulfonyl)piperidin-1-yl)methanone] | < 500 | 1000 to 10000
23 | N#CC1(c2ccccc2)CCN(c2c(C(=O)N3CC4(C3)CS(=O)(=O)C4)cnc3ccc(F)cc23)CC1 [Cpd. 328, 1-(3-(2,2-dioxido-2-thia-6-azaspiro[3.3]heptane-6-carbonyl)-6-fluoroquinolin-4-yl)-4-phenylpiperidine-4-carbonitrile] | < 500 | < 500
24 | COc1ccc2c(N3CCC(C)(C#N)CC3)c(C(=O)N3CCN(C(=O)C(C)C)CC3)cnc2c1 [Example 103, 1-(3-(4-isobutyrylpiperazine-1-carbonyl)-7-methoxyquinolin-4-yl)-4-methylpiperidine-4-carbonitrile] | < 500 | 1000 to 10000
25 | O=C(c1cnc2cc(F)c(F)cc2c1N1CCC2(CC1)OCCO2)N1CCN(C(=O)N2CCCC2)CC1 [Example 170, (6,7-difluoro-4-(1,4-dioxa-8-azaspiro[4.5]decan-8-yl)quinolin-3-yl)(4-(pyrrolidine-1-carbonyl)piperazin-1-yl)methanone] | < 500 | 1000 to 10000
26 | CS(=O)(=O)N1CCN(C(=O)c2cnc3ccc(F)cc3c2N2CCN(S(=O)(=O)c3ccccc3)CC2)CC1 [Example 254, (6-fluoro-4-(4-(phenylsulfonyl)piperazin-1-yl)quinolin-3-yl)(4-(methylsulfonyl)piperazin-1-yl)methanone] | < 500 | < 500
